Results reported in ChEMBL document CHEMBL1201862, “PubChem BioAssay data set” (2004).
Activity calls are given as the source filed them.

Tests used:
[1] = THP-1 cell cytotoxicity, dose response, cytotoxicity control for non-replicating M. tuberculosis project (AID 489025); format: functional
[2] = HepG2 cell cytotoxicity, dose response, cytotoxicity control for non-replicating M. tuberculosis project (AID 489018); format: functional; conditions: Mycobacterium tuberculosis
[3] = target: T1, Ubiquitin-conjugating enzyme E2 N (Homo sapiens, UniProt P61088); format: functional
T1 sequence (P61088 whole entry): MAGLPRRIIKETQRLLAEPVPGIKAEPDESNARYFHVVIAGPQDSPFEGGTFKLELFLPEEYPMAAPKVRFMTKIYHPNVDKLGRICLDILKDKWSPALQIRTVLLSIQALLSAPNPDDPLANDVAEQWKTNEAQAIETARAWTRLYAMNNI

[4] = Vero E6 cell cytotoxicity, dose response, cytotoxicity control for non-replicating M. tuberculosis project, secondary assay (AID 492998); format: functional, VeroE6; conditions: Vero C1008
cells = format: functional
Insulin-degrading enzyme [5] = target: T2, Insulin-degrading enzyme (Homo sapiens, UniProt P14735); test: recombinant IDE activation, cell-free – biochemical, fluorescence polarization, counter-screen for IDE activator project, dose response (AID 588681)
T2 sequence (P14735 whole entry): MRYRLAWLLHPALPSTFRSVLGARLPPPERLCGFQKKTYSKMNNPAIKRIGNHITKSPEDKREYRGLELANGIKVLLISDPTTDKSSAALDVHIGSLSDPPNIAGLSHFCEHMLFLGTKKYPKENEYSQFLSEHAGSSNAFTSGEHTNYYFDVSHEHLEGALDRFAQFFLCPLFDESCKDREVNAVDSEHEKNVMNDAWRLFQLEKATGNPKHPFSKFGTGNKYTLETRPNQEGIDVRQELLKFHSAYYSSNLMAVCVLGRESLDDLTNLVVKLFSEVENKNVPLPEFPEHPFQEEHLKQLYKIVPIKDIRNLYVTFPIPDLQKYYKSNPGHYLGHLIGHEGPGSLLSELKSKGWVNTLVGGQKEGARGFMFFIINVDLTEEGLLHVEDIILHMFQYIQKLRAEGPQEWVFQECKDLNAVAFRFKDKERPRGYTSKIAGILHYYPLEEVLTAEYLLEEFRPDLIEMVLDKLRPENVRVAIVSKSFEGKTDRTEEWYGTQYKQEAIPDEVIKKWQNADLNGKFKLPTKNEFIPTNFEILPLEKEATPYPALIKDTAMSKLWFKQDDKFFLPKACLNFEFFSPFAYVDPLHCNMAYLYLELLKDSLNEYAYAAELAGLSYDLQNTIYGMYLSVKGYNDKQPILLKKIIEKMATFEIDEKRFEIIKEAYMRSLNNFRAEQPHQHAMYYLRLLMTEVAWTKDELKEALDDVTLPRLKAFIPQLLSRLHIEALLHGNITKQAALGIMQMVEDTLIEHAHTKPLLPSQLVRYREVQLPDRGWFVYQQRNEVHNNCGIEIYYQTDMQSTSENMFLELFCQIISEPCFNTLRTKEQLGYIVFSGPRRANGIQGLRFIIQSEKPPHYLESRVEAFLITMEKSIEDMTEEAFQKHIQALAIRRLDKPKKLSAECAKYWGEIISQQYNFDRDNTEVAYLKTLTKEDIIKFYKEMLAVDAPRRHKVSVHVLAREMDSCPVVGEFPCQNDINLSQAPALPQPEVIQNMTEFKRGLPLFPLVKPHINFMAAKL

Insulin-degrading enzyme [6] = target: T2, Insulin-degrading enzyme; test: cellular IDE activation of Abeta substrate cleavage – fluorescence polarization, HEK cells, dose response (AID 588439); format: functional, cell-based
HEK293 [7] = test: membrane integrity loss in HEK cells – cell-based, fluorescence, cytotoxicity control for IDE activator project, dose response (AID 588440); format: functional; conditions: Homo sapiens;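 note: cytotoxicity by LDH release measuring loss of membrane integrity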
HEK293 [8] = test: optical interference in Abeta FP readout, dose response, artefact control for IDE activator project, biochemical, fluorescence polarization (AID 588442); format: functional, cell-based; conditions: Homo sapiens
[9] = target: T3, Methionyl-tRNA synthetase, putative (Trypanosoma brucei brucei, UniProt Q38C91); format: functional, Trypanosoma brucei brucei strain 927/4 GUTat10.1
T3 sequence (Q38C91 whole entry): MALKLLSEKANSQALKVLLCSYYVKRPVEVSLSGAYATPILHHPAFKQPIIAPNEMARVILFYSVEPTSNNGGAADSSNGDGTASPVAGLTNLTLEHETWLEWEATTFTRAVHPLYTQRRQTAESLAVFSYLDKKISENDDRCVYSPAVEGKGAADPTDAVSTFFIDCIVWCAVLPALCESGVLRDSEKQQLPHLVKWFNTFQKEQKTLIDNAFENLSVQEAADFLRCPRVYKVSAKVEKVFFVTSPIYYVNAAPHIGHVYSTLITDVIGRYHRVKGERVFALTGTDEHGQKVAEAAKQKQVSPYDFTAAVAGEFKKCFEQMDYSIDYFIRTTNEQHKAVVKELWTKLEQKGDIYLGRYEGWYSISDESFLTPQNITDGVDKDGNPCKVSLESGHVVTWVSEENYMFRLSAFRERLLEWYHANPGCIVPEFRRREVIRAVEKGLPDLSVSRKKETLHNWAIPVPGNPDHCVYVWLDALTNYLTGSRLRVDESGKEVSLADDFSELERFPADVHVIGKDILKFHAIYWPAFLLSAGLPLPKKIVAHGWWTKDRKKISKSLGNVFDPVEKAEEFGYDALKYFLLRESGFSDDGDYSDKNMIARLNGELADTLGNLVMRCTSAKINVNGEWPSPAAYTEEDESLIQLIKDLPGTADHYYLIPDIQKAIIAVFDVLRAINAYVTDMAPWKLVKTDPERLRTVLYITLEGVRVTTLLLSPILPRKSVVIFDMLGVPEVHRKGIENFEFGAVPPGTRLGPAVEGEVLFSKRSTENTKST

[10] = Counterscreen for inhibitors of Trypanosoma brucei methionyl tRNA synthetase (MetRS): Luminescence-based cell-based high throughput dose response assay to identify compounds that are cytotoxic to Jurkat human T lymphocyte cells.; format: functional
[11] = target: T3, Methionyl-tRNA synthetase, putative; format: functional, Trypanosoma brucei brucei strain 927/4 GUTat10.1; remark: listed apart in the source
Melanocortin receptor 4 = Melanocortin receptor 4 (Homo sapiens, UniProt P32245); test: inhibitors of MC4R cAMP signaling – cell-based, TR-FRET, biased antagonists, dose response (AID 602298); format: functional;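 note: antagonist potency against agonist-stimulated cAMP production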
Sequence of Melanocortin receptor 4 (P32245 whole entry): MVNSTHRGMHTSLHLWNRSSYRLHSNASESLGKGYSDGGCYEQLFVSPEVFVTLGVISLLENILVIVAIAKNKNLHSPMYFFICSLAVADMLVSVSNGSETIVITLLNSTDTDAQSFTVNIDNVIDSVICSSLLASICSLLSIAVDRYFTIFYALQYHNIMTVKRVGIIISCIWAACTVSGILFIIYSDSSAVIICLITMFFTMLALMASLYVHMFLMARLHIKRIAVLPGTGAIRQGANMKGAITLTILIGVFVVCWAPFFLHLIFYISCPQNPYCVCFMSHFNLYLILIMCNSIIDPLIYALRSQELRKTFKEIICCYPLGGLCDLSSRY

[12] = cAMP pathway inhibition in counterscreen cell line – TR-FRET cAMP detection, counter-screen for MC4R biased antagonist project, dose response (AID 602305); format: functional, cell-based;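 note: U2OS cells stimulated with forskolin near its EC80 as the cAMP inducer; potency is for inhibition of forskolin-stimulated cAMP signaling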
[13] = Luminescence Cell-Based Dose Retest to Confirm Inhibitors of Cancer Stem Cells. [Related pubchem assays (depositor defined):AID2717, AID2721]; format: functional; conditions: Homo sapiens
Bcl-2-related protein A1 = target: T4, Bcl-2-related protein A1 (Mus musculus, UniProt Q07440); format: functional;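 note: confirmatory dose–response counterscreen on Bfl-1, used to check hits from a UBC13 polyubiquitin inhibitor campaign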
T4 sequence (Q07440 whole entry): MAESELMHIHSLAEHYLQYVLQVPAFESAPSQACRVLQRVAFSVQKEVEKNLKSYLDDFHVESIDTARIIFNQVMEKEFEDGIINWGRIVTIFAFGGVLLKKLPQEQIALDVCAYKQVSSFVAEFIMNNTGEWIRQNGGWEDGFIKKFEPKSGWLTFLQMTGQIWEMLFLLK

[14] = target: T1, Ubiquitin-conjugating enzyme E2 N; format: functional; remark: listed apart in the source
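Throughout, for AC50: cells exposed to compound for roughly 70 hours or longer before luminescence read.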

| Structure (SMILES) | CC50 [1] | CC50 [2] | IC50 [3] | CC50 [4] | IC50 (cells) | EC50 (Insulin-degrading enzyme [5]) | EC50 (Insulin-degrading enzyme [6]) | IC50 (HEK293 [7]) | EC50 (HEK293 [8]) | IC50 [9] | IC50 [10] | IC50 [11] | IC50 (Melanocortin receptor 4) | IC50 [12] | AC50 [13] | IC50 (Bcl-2-related protein A1) | IC50 [14] |
| --- | --- | --- | --- | --- | --- | --- | --- | --- | --- | --- | --- | --- | --- | --- | --- | --- | --- |
| Cc1c(CN2CCC(CO)(CCOc3ccccc3)CC2)[nH]c2ccc(Cl)cc12 | 17.9 µM (active) | 15.1 µM (active) | > 20 µM (inactive) | 16.8 µM (active) | 8.32 µM (active) | > 54.7 µM (inactive) | 15.9 µM (inactive) | 28.3 µM (inactive) | > 54.7 µM (inactive) | 38.8 µM (inactive) | 25.8 µM (inactive) | 64.4 µM (inactive) |  |  |  |  |  |
| O=S(=O)(c1ccc(Br)c2nsnc12)N1CCOCC1 |  |  |  |  |  |  |  |  |  |  |  |  | > 64.6 µM (inactive) | > 64.6 µM (inactive) |  |  |  |
| FC(F)(F)c1cc(CCN2CCNC[C@H]2Cc2cccc3ccccc23)cc(C(F)(F)F)c1 |  |  | 11.7 µM (active) |  |  | > 54.7 µM (inactive) | 11.1 µM (inactive) | 10.1 µM (inactive) | > 55.9 µM (inactive) |  |  |  |  |  | 3.37 µM (active) | > 20 µM (inactive) | 9.82 µM (active) |
